{"source": "patent US10369123B2", "about": "“Perk activator for the treatment of neurodegenerative diseases” (DEUTSCHES ZENTRUM FÜR NEURODEGENERATIVE ERKRANKUNGEN E.V. …, priority 2014, dated 2019)", "key": {"PERK": {"molecular_target": "T1, PERK (Homo sapiens, UniProt Q9NZJ5)", "T1 sequence (Q9NZJ5 30-1116)": "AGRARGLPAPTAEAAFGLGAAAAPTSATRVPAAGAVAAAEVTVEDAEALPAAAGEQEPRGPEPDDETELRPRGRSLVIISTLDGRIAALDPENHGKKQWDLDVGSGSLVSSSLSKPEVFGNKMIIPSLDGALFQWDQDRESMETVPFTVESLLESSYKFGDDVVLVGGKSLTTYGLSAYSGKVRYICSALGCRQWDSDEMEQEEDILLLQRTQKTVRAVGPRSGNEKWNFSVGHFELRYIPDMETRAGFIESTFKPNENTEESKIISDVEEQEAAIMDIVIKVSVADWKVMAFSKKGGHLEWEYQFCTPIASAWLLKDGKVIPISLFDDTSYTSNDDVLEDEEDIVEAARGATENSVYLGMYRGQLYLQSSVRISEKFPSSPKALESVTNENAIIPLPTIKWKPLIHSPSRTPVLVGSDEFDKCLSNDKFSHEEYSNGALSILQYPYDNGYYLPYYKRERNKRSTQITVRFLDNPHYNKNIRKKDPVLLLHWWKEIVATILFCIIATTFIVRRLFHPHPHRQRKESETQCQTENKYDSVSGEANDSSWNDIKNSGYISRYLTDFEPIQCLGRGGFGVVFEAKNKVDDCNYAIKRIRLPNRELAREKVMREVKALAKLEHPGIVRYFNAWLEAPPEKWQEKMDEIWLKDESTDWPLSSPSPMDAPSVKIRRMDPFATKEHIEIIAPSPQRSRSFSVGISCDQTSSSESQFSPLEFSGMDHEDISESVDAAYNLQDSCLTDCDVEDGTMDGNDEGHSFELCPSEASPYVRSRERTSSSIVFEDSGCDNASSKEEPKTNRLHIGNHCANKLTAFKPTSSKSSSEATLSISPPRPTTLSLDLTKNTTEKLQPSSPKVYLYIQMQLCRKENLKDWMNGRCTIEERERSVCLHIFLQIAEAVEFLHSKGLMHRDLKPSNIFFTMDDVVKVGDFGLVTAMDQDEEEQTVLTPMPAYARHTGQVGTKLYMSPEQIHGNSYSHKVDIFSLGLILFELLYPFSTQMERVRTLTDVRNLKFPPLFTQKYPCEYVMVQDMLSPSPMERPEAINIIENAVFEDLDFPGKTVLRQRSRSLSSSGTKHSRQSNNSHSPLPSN", "settings": "Stockwell et al. 2012; cited from earlier work"}, "[1]": {"system": "LUHMES neurons overexpressing 4R-tau", "assay": "MTT assay, LUHMES neurons overexpressing 4R-tau", "type": "cell-based, human", "settings": "lentiviral 4R-tau overexpression 10 days, co-administration of PERK modulator", "method": "Nunc™ Nunclon™ Delta 6-well (for protein and mRNA) or 48-well (for cell assays) plates (Thermo Fisher Scientific, Waltham, Mass., USA) were coated with 100 μg/ml poly-L-lysine (Sigma-Aldrich, St. Louis, Mo., USA) and 5 μg/ml fibronectin (Sigma-Aldrich). LUHMES (Lund Human Mesencephalic) cells, derived from human embryonic ventral mesencephalic cells by conditional immortalization (Tet-off v-myc over-expression) were seeded out in a concentration of 130,000 cells/cm^2 to achieve a confluence of 50%. […]\nConcentrated lentiviral particles were titrated by transducing LUHMES cells with different dilutions at 6 hours after initiating differentiation. The lowest dilution at which at least 90% of cells expressed the transgene (as determined by immunohistochemistry of the cells fixed on day 2 post differentiation) was chosen for subsequent experiments. […]\nThiazolyl Blue Tetrazolium […] (Sigma Aldrich) was dissolved in sterile PBS to a concentration of 5 mg/ml. […] 100 μl from each well were transferred to a new 96-well plate and the absorbance was read with the FLUOstar Omega (BMG Labtech) platereader at a wavelength of 590 nm (reference wave length 630 nm). The data was analyzed using the MARS Data Analysis Software (BMG Labtech) and Prism 6."}, "tau": {"system": "tau", "assay": "Western blot of tau conformation and phosphorylation, annonacin model", "type": "cell-based, human", "settings": "annonacin 25 nM + PERK activator, 48 h", "method": "Nunc™ Nunclon™ Delta 6-well (for protein and mRNA) or 48-well (for cell assays) plates (Thermo Fisher Scientific, Waltham, Mass., USA) were coated with 100 μg/ml poly-L-lysine (Sigma-Aldrich, St. Louis, Mo., USA) and 5 μg/ml fibronectin (Sigma-Aldrich). LUHMES (Lund Human Mesencephalic) cells, derived from human embryonic ventral mesencephalic cells by conditional immortalization (Tet-off v-myc over-expression) were seeded out in a concentration of 130,000 cells/cm^2 to achieve a confluence of 50%. They were then differentiated for 8 days in a medium of DMEM/F12 (Sigma-Aldrich), 1 μg/ml tetracycline, […] and 490 μg/ml dbcAMP into post-mitotic neurons with a dopaminergic phenotype (Lotharius et al. 2005).\nFor all experiments with annonacin, the medium was replaced during the intoxication period with new medium containing glucose levels reduced to 250 μM, i.e. the physiological concentration in the human brain.\nProtein was extracted by scraping the cells from the culture plate with Mammalian Protein Extraction Reagent (M-PER, Thermo Fisher Scientific) and 1× cOmplete Protease Inhibitor Cocktail Tablets (Hoffmann-La Roche, Basel, Switzerland) and 1× PhosSTOP Phosphatase Inhibitor Cocktail Tablets (Hoffmann-La Roche). For pNRF2 blots, cells were extracted with 2% SDS tris-buffer instead of M-PER in order to obtain whole cell extracts and not to lose the nuclear fraction. The protein solution was frozen at −80° C., immediately after retrieval, for a minimum of two hours. The solution was then thawed on ice, vortexed, centrifuged at 5000 g for 15 min at 4° C. and the supernatant retrieved. Protein concentrations were determined using the BCA kit (Thermo Fisher Scientific) by heating the samples at 60° C. for 30 min and measuring the absorption on the NanoDrop 2000c Spectrophotometer (Thermo Fisher Scientific).\n20 μg of protein (unless indicated otherwise) were adjusted to equal concentrations between samples by dilution with M-PER and subsequently heated at 95° C. for 5 minutes with Roti®-Load 1 (Carl Roth). SDS-PAGE was performed using Any kD™ Mini-PROTEAN® TGX™ Gels (BioRad, Berkeley, Calif., USA) in a tris-glycine running buffer. The protein was blotted onto PVDF membrane (BioRad) at 70 V for 65 minutes on ice. The membrane was blocked with 1× Roti®-Block solution (Carl Roth) for 1 h and then incubated at 4° C. overnight under gentle shaking with the primary antibody (see Table 5) in TBS with 5% BSA (Cell Signaling Technology) and 0.05% TWEEN (Sigma-Aldrich).\nThe membranes were then washed and incubated with the species specific HRP-bound secondary antibody (Vector Laboratories, Burlingame, Calif., USA) at 1:2500 in 1× Roti®-Block solution for 2 h, followed by further washing and exposure to Clarity Western ECL Substrate (BioRad) or, in the case of MC1 and 4R-tau, to Amersham™ ECL™ Prime (GE Healthcare). Chemiluminescence was detected with the Gel Doc™ XR System (BioRad) and analyzed with Image Lab™ software (BioRad), followed by graphical and statistical analysis with Prism 6 (GraphPad Software)."}}, "note": "“Also recorded” adds a separate entry of the source.", "data": [{"smiles": "CCN(CC)CCC(=O)N1N=C(c2c(-c3ccccc3)c3cc(Br)ccc3[nH]c2=O)CC1c1ccc(Br)cc1", "note": "(stereo not shown) [CCT020312, 6-bromo-3-[5-(4-bromo-phenyl)-1-(3-diethylamino-propionyl)-4,5-dihydro-1H-pyrazol-3-yl]-4-phenyl-1H-quinolin-2-one]", "values": [{"measurement": "EIF2A phosphorylation", "setting": "PERK", "value": "increase"}, {"measurement": "other arms of the UPR", "setting": "PERK", "value": "remained unaffected"}, {"measurement": "4R-specific toxicity in MTT assay", "setting": "[1]", "value": "reduced significantly"}, {"measurement": "total tau protein (HT7)", "setting": "tau", "value": "not altered"}, {"measurement": "AD2 (p-Ser-396 and 404) tau phosphorylation", "setting": "tau; vs annonacin alone", "value": "significantly reduced"}, {"measurement": "CP13 (p-Ser-202) tau phosphorylation", "setting": "tau; vs annonacin alone", "value": "significantly reduced"}, {"measurement": "MC1 pathological tau conformation", "setting": "tau; vs annonacin alone", "value": "reversed; also recorded: averted"}]}]}
